Assays:
Format in all cases: in vivo
[1] = system: Diabrotica Balteata (Corn Root Worm); assay: Activity against Diabrotica balteata (corn root worm), maize sprouts on agar; conditions: 96 h, application rate of 200 ppm, L2 larvae, 4 days after infestation, in comparison to untreated samples, read-out: effect in at least one of the two categories (mortality or growth inhibition)
Method: Example B2: Activity Against Diabrotica Balteata (Corn Root Worm)
Maize sprouts placed onto an agar layer in 24-well microtiter plates were treated with aqueous test solutions prepared from 10′000 ppm DMSO stock solutions by spraying. After drying, the plates were infested with L2 larvae (6 to 10 per well). The samples were assessed for mortality and growth inhibition in comparison to untreated samples 4 days after infestation.

[2] = system: Chilo suppressalis (Striped Rice Stemborer); assay: Activity against Chilo suppressalis (striped rice stemborer), artificial diet in 24-well plates; conditions: 144 h, application rate of 200 ppm, L2 larvae, 6 days after infestation, in comparison to untreated samples, read-out: control (at least one of mortality, anti-feedant effect, growth inhibition)
Method: Example B1: Activity Against Chilo suppressalis (Striped Rice Stemborer)
24-well microtiter plates with artificial diet were treated with aqueous test solutions prepared from 10′000 ppm DMSO stock solutions by pipetting. After drying, the plates were infested with L2 larvae (6-8 per well). The samples were assessed for mortality, anti-feeding effect, and growth inhibition in comparison to untreated samples 6 days after infestation. Control of Chilo suppressalis by a test sample is given when at least one of the categories mortality, anti-feedant effect, and growth inhibition is higher than the untreated sample.

[3] = system: Spodoptera littoralis (Egyptian Cotton Leaf Worm); assay: Activity against Spodoptera littoralis (Egyptian cotton leaf worm), cotton leaf discs; conditions: foliar, 72 h, application rate of 200 ppm, L1 larvae, 3 days after infestation, in comparison to untreated samples, read-out: control (at least one of mortality, anti-feedant effect, growth inhibition)
Method: Example B7: Activity Against Spodoptera littoralis (Egyptian Cotton Leaf Worm)
Cotton leaf discs were placed onto agar in 24-well microtiter plates and sprayed with aqueous test solutions prepared from 10′000 ppm DMSO stock solutions. After drying the leaf discs were infested with five L1 larvae. The samples were assessed for mortality, anti-feeding effect, and growth inhibition in comparison to untreated samples 3 days after infestation. Control of Spodoptera littoralis by a test sample is given when at least one of the categories mortality, anti-feedant effect, and growth inhibition is higher than the untreated sample.

[4] = system: Frankliniella occidentalis (Western Flower Thrips); assay: Activity against Frankliniella occidentalis (western flower thrips), feeding/contact activity, sunflower leaf discs; conditions: foliar, 168 h, application rate of 200 ppm, population of mixed ages, 7 days after infestation
Method: Example B4: Activity Against Frankliniella occidentalis (Western Flower Thrips) Feeding/Contact Activity
Sunflower leaf discs were placed on agar in 24-well microtiter plates and sprayed with aqueous test solutions prepared from […] stock solutions. After drying the leaf discs were infested with a Frankliniella population of mixed ages. The samples were assessed for mortality 7 days after infestation.

[5] = system: Myzus persicae (Green Peach Aphid); assay: Activity against Myzus persicae (green peach aphid), feeding/contact activity, sunflower leaf discs; conditions: foliar, 144 h, application rate of 200 ppm, aphid population of mixed ages, 6 days after infestation
Method: Example B5: Activity Against Myzus persicae (Green Peach Aphid) Feeding/Contact Activity
Sunflower leaf discs were placed onto agar in a 24-well microtiter plate and sprayed with aqueous test solutions prepared from 10′000 ppm DMSO stock solutions. After drying, the leaf discs were infested with an aphid population of mixed ages. The samples were assessed for mortality 6 days after infestation.

[6] = system: Carpocapsa (Cydia) Pomonella (Codling Moth); assay: Activity against Carpocapsa (Cydia) pomonella (codling moth), larvicide, feeding/contact, diet cubes; conditions: 336 h, application rate of 12.5 ppm, L1 larvae, 14 days after infestation, 26-27° C.
Method: Example B9: Activity Against Carpocapsa (Cydia) Pomonella (Codling Moth)) Larvicide, Feeding/Contact
Diet cubes coated with paraffin were sprayed with diluted test solutions in an application chamber. After drying off the treated cubes (10 replicates) were infested with 1 L1 larvae. Samples were incubated at 26-27° C. and checked 14 days after infestation for mortality and growth inhibition.

[7] = system: Plutella xylostella (Diamond Back Moth); assay: Activity against Plutella xylostella (diamond back moth), artificial diet in 24-well plates; conditions: 192 h, application rate of 200 ppm, Plutella eggs, 8 days after infestation, in comparison to untreated samples, read-out: effect in at least one of the two categories (mortality or growth inhibition)
Method: Example B6: Activity Against Plutella xylostella (Diamond Back Moth)
24-well microtiter plates with artificial diet were treated with aqueous test solutions prepared from 10′000 ppm DMSO stock solutions by pipetting. After drying, Plutella eggs were pipetted through a plastic stencil onto a gel blotting paper and the plate was closed with it. The samples were assessed for mortality and growth inhibition in comparison to untreated samples 8 days after infestation.

[8] = system: Euschistus heros (Neotropical Brown Stink Bug); assay: Activity against Euschistus heros (neotropical brown stink bug), soybean leaves on agar; conditions: 120 h, application rate of 200 ppm, N2 nymphs, 5 days after infestation, in comparison to untreated samples, read-out: effect in at least one of the two categories (mortality or growth inhibition)
Method: Example B3: Activity Against Euschistus heros (Neotropical Brown Stink Bug)
Soybean leaves on agar in 24-well microtiter plates were sprayed with aqueous test solutions prepared from 10′000 ppm DMSO stock solutions. After drying the leaves were infested with N2 nymphs. The samples were assessed for mortality and growth inhibition in comparison to untreated samples 5 days after infestation.

CCS(=O)(=O)c1c(N2Cc3ncc(C4(C#N)CC4)cc3C2=O)nc2ccc(C(F)(F)F)cn12 [P2, 1-[6-[3-ethylsulfonyl-6-(trifluoromethyl)imidazo[1,2-a]pyridin-2-yl]-5-oxo-7H-pyrrolo[3,4-b]pyridin-3-yl]cyclopropanecarbonitrile]
≥ 80%: percent effect (mortality or growth inhibition) at 200 ppm [1] | percent control (mortality, anti-feedant effect or growth inhibition) at 200 ppm [2] | percent control (mortality, anti-feedant effect or growth inhibition) at 200 ppm [3] | mortality at 200 ppm [4] | mortality at 200 ppm [5] | mortality at 12.5 ppm [6] | percent effect (mortality or growth inhibition) at 200 ppm [7] | percent effect (mortality or growth inhibition) at 200 ppm [8]
